Measurements taken from patent US9345703B2, “Kappa opioid receptor effectors and uses thereof” (University of Kansas, priority 2011, dated 2016).
Marks after values point to notes of the source that are not given here.

Columns and labels:
MOR [1] = target: T1, MOR (Homo sapiens, UniProt P35372); experiment: High content imaging β-arrestin translocation assay, MOR antagonist (MOR HCS); type: cell-based; conditions: antagonist; average; read-out: Potency, Antitarget MOR HCS
Text: (§1) In this campaign, two assay platforms were employed to evaluate KOR activity and selectivity: the KOR1 DISCOVERX β-Arrestin […] assay and an imaging based β-arrestin translocation assay for confirmatory and selectivity assays. The KOR1 DISCOVERX β-Arrestin […] assay is a commercial platform for direct measurement of GPCR (G protein-coupled receptor) activation by detection of β-Arrestin binding to the KOR. […] In cells that stably express these fusion proteins, ligand stimulation results in the recruitment of β-Arrestin by the GPCR. This interaction encourages the complementation of the two β-galactosidase fragments resulting in the formation of a functional enzyme that converts substrate in the assay medium to a detectable signal. The imaging based high-content β-arrestin translocation assay is based upon the redistribution of β-Arrestin linked to green fluorescent protein (GFP) to the cell surface and detection (Barak, et al. (1997) J. Biol. Chem. 272:27497-27500).
(§2) Initially, a portion (approximately 290,000 compounds) of the MLSMR compound collection was tested in the KOR1 DISCOVERX β-arrestin primary kappa opioid (KOP) agonist and antagonist screens (PUBCHEM AID 1777 and 1778, respectively) at a single concentration point (10 μM). […] These compounds were concurrently tested in a β-galactosidase counterscreen assay (PUBCHEM AID 1966) to assess the possibility that these compounds might inhibit the reporting enzyme. […] The KOR:DOR:MOR selectivity of the compounds was determined using the analogous β-arrestin translocation assays for the DOR (PUBCHEM AID 2370 and 2357, for agonists and antagonist, respectively) and the MOR (PUBCHEM AID 2352 and 2420, for agonists and antagonists, respectively).

DOR = DOR (Homo sapiens, UniProt P41143); experiment: High content imaging β-arrestin translocation assay, DOR antagonist (DOR HCS); type: cell-based; conditions: antagonist; average; read-out: Potency, Antitarget DOR HCS
Text: as §1, §2

KOP receptor [2] = target: T2, KOP receptor (Homo sapiens, UniProt P41145); experiment: 35S-GTPγS coupling, inhibition; type: biochemical
KOP receptor [3] = target: T2, KOP receptor; experiment: ERK 1/2 activation, inhibition; type: cell-based
[4] = Stability in PBS at room temperature; type: physicochemical; conditions: 48 hours, <0.1% DMSO
in vitro = conditions: for Papp: PAMPA
Description: (§3) PAMPA is used as an in vitro model of passive, transcellular permeability. An artificial membrane immobilized on a filter is placed between a donor and acceptor compartment. At the start of the test, drug is introduced in the donor compartment (at various pH). Following the permeation period, the concentrations of compound in the donor compartment and acceptor compartment are measured using UV spectroscopy.

[5] = pH 7.4
Description: as §3

Plasma stability, human = type: in vitro ADME
Text: (§4) Plasma stability is a measure of the stability of small molecules and peptides in plasma and is an important parameter that can strongly influence the in vivo efficacy of a test compound. Drug candidates are exposed in plasma to enzymatic processes (proteinases, esterases), and they can undergo intramolecular rearrangement or bind irreversibly (covalently) to proteins.

Plasma stability, mouse = type: in vitro ADME
Text: as §4

[6] = Hepatic microsome stability, human; type: in vitro ADME; conditions: human microsomes, 1 hour
Text: (§5) The microsomal stability assay is commonly used to rank compounds according to their metabolic stability. This assay addresses the pharmacologic question of how long the parent compound will remain circulating in plasma within the body.

[7] = Hepatic microsome stability, mouse; type: in vitro ADME; conditions: mouse microsomes, 1 hour
Text: as §5

5ht3 = 5ht3 (Homo sapiens, UniProt P46098); experiment: PDSP radioligand binding assay
Description: (§6) The compound was initially screened in radioligand binding assays at a constant concentration (10 μM) to identify possible activity of the compound. Results showing significant activity in the initial screen were selected for Ki determinations.
(§7) As a representative of the Chemotype II series, the MLPCN probe molecule 2{8} was subjected to a binding assay panel of 44 GPCR and other molecular targets by the Pyschoactive Drug Screening Program (PDSP) (Table 10). The compound was initially screened in a radioligand binding assay at a constant concentration (10 μM) to identify possible activity of the compound. Results showing significant activity in the initial screen were selected for Ki determinations.

Alpha1B = Alpha1B (Homo sapiens, UniProt P35368); experiment: PDSP radioligand binding assay
Description: as §6, §7

Alpha2C = Alpha2C (Homo sapiens, UniProt P18825); experiment: PDSP radioligand binding assay
Description: as §6, §7

D1 = D1 (Homo sapiens, UniProt P21728); experiment: PDSP radioligand binding assay
Description: as §6, §7

H3 = H3 (Homo sapiens, UniProt Q9Y5N1); experiment: PDSP radioligand binding assay
Description: as §6, §7

M2 = M2 (Homo sapiens, UniProt P08172); experiment: PDSP radioligand binding assay
Description: as §6, §7

M3 = M3 (Homo sapiens, UniProt P20309); experiment: PDSP radioligand binding assay
Description: as §6, §7

M4 = M4 (Homo sapiens, UniProt P08173); experiment: PDSP radioligand binding assay
Description: as §6, §7

Sigma1 = experiment: PDSP radioligand binding assay
Description: as §6, §7

MOR [8] = target: T1, MOR; experiment: High content imaging based β-arrestin translocation assay, MOR agonist (MOR HCS); type: cell-based; conditions: n = 2, read-out: Average Potency MOR HCS
Text: as §1, §2

DAT = DAT (Homo sapiens, UniProt Q01959); experiment: PDSP radioligand binding assay; conditions: Table 10
Description: as §6, with “The broader selectivity of compound 1{3} was tested against additional targets and basic pharmacological properties were assessed. […] The” for “The”
as §7

[9] = system: Fa2N-4 immortalized human hepatocytes; experiment: Hepatocyte toxicity; conditions: read-out: LC50; Fa2N-4 hepatocytes

Alpha1B, sequence (P35368 whole entry): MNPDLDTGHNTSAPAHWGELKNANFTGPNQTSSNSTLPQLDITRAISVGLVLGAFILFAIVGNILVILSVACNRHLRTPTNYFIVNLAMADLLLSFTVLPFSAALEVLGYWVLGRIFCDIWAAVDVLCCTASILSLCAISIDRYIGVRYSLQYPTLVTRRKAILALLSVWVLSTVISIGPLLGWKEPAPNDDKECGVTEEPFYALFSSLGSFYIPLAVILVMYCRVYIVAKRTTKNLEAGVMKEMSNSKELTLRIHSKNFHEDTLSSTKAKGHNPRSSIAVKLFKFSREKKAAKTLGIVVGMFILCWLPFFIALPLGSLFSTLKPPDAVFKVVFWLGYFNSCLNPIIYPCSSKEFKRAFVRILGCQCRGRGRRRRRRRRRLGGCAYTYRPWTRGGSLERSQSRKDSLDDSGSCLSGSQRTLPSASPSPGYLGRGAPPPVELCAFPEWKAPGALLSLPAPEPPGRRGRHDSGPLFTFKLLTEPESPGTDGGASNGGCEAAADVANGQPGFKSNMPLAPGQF
5ht3, sequence (P46098 24-478, species assumed): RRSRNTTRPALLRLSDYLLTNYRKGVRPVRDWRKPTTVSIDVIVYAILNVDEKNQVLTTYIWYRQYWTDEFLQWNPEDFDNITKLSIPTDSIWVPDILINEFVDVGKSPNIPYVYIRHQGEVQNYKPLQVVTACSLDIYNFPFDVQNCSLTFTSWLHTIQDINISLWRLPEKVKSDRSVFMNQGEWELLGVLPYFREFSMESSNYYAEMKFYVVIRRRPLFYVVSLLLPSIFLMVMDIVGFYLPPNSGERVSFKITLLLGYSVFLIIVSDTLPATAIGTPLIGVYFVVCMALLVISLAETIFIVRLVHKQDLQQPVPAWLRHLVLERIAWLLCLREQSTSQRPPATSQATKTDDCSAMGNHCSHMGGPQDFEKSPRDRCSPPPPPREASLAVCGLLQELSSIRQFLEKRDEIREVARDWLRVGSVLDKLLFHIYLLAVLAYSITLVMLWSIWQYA
M3, sequence (P20309 whole entry): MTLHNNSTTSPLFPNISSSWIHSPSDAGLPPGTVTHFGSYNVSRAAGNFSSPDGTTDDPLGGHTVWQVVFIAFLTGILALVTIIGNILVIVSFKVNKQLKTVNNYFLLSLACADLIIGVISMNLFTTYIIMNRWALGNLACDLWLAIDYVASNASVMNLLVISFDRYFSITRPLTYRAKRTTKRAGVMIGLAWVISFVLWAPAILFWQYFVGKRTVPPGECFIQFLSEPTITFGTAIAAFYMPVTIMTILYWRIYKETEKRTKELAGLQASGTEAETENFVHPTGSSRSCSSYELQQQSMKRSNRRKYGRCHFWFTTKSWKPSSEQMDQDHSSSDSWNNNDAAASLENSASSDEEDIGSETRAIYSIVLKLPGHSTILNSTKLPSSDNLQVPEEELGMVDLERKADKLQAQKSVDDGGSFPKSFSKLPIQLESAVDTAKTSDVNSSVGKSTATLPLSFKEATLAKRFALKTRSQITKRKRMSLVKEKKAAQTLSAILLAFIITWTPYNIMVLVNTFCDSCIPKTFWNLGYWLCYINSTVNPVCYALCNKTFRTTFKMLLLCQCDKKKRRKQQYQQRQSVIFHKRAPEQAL
T1 sequence (P35372 whole entry, the tested form may be a part): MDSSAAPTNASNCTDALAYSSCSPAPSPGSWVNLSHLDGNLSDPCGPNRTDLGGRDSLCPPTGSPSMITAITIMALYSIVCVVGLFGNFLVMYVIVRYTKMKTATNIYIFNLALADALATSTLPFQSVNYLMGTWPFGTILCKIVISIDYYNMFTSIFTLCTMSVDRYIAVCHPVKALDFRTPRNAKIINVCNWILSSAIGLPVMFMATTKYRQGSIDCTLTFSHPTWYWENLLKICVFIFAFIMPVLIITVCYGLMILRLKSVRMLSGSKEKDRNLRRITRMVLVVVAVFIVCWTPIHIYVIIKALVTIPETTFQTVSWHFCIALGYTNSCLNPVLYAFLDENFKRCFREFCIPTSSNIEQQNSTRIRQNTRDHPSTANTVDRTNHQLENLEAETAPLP
M2, sequence (P08172 whole entry): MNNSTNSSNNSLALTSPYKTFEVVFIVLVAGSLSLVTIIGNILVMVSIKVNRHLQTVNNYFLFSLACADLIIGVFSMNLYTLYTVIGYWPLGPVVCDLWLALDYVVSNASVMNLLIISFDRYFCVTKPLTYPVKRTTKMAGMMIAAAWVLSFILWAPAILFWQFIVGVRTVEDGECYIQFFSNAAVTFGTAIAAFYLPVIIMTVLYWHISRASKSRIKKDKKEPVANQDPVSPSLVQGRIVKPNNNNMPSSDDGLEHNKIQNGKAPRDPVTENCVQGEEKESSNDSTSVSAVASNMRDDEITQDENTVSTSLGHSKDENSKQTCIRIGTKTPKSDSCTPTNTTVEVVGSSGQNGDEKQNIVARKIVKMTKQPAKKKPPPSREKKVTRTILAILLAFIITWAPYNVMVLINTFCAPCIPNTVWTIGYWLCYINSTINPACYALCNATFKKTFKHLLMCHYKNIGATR
M4, sequence (P08173 whole entry): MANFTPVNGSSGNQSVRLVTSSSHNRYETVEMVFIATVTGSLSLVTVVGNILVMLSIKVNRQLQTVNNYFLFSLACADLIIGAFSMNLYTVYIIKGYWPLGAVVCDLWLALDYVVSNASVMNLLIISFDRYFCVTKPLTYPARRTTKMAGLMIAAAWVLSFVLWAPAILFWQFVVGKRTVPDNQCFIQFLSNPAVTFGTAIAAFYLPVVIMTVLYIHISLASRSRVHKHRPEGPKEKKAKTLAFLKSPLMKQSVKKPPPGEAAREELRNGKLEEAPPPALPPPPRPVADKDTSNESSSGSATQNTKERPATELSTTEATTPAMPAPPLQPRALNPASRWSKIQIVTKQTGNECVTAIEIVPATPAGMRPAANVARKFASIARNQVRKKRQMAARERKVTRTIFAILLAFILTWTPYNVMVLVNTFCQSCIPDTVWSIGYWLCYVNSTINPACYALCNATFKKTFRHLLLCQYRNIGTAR
Alpha2C, sequence (P18825 whole entry): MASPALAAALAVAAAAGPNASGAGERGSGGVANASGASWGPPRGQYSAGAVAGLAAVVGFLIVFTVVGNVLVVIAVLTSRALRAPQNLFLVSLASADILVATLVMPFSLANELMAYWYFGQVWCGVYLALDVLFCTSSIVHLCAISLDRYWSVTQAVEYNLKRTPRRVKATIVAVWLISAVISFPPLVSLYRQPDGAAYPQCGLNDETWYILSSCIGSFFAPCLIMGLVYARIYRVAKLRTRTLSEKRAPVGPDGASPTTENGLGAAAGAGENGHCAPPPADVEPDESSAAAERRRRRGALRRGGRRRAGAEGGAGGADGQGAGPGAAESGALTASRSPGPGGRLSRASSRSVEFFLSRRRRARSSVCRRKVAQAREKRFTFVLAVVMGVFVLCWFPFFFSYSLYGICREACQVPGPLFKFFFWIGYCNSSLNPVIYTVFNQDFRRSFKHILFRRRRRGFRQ
H3, sequence (Q9Y5N1 whole entry): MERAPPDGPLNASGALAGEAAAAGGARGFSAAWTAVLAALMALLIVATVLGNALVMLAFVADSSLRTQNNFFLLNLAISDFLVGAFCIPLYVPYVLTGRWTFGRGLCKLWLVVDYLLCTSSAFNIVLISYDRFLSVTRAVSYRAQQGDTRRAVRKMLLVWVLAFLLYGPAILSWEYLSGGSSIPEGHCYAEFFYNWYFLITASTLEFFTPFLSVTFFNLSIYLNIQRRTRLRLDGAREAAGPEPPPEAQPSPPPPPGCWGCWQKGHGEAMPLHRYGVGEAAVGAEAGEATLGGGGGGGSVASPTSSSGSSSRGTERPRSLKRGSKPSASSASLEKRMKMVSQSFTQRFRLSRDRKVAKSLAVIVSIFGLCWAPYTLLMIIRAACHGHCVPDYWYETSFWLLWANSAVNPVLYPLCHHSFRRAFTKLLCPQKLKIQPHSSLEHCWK
T2 sequence (P41145 whole entry): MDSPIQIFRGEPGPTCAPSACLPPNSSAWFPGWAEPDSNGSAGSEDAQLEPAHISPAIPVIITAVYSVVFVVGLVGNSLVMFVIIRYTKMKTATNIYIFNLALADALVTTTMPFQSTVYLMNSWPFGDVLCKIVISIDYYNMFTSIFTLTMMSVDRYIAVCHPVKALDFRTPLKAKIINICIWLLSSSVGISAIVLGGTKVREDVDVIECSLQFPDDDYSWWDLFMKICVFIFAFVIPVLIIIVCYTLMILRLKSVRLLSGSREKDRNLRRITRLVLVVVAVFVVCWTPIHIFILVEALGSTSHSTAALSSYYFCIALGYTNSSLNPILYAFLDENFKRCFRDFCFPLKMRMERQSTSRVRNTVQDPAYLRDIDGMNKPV
D1, sequence (P21728 whole entry): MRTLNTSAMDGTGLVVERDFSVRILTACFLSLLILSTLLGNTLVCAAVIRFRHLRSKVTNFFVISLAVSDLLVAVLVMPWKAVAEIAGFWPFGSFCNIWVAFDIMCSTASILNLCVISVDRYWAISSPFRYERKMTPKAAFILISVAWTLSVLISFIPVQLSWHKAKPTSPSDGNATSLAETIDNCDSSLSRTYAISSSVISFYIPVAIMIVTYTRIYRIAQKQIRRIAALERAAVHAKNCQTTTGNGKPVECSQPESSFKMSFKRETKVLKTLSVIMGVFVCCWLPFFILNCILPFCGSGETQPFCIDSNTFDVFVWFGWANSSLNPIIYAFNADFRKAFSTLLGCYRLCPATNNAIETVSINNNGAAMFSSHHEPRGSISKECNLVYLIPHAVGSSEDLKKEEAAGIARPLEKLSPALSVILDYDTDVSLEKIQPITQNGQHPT

SMILES: COc1ccc(N2CCN(CCCNC(=O)Cn3c(=O)c4cccn4c4c(C)ccnc43)CC2)cc1 [Compound 1{3}, N-(3-(4-(4-Methoxyphenyl)piperazin-1-yl)propyl)-2-(1-methyl-6-oxopyrido[2,3-e]pyrrolo[1,2-a]pyrazin-5(6H)-yl)acetamide]
- IC50 (MOR [1]): > 32 µM
- IC50 (DOR): > 32 µM
- Imax (% NBNI) (KOP receptor [2]): 117 ± 5^a % NBNI
- Imax (% NBNI) (KOP receptor [3]): 90 ± 2^a % NBNI
- parent compound remaining [4]: 94.42%
- Papp (in vitro; pH 5): 27 ×10⁻⁶ cm/s
- Papp (in vitro; pH 6.2): 227 ×10⁻⁶ cm/s
- Papp (in vitro; pH 7.4): 757 ×10⁻⁶ cm/s
- blood brain barrier PAMPA permeability [5]: 51 ×10⁻⁶ cm/s
- plasma stability, remaining (Plasma stability, human; human, plasma, 3 h): 100%
- plasma stability, remaining (Plasma stability, mouse; mouse, plasma, 3 h): 100%
- microsomal stability, remaining [6]: 22%
- microsomal stability, remaining [7]: 7.3%
- Ki (5ht3; Table 5): > 10 µM
- Ki (Alpha1B; Table 5): > 10 µM
- Ki (Alpha2C; Table 5): 0.694 µM
- Ki (D1; Table 5): > 10 µM
- Ki (H3; Table 5): > 10 µM
- Ki (M2; Table 5): > 10 µM
- Ki (M3; Table 5): > 10 µM
- Ki (M4; Table 5): > 10 µM
- Ki (Sigma1; Table 5): > 10 µM

SMILES: Clc1ccc(CSc2nnc(-c3ccccn3)n2Cc2ccco2)cc1Cl [Compound 2{8}]
- EC50 (MOR [8]): > 32 µM
- PAMPA permeability (in vitro; donor pH 5): 1793 ×10⁻⁶ cm/s
- PAMPA permeability (in vitro; donor pH 6.2): 1921 ×10⁻⁶ cm/s
- PAMPA permeability (in vitro; donor pH 7.4): 2089 ×10⁻⁶ cm/s
- plasma stability, remaining (Plasma stability, human; human plasma, 3 hours): 100%
- plasma stability, remaining (Plasma stability, mouse; mouse plasma, 3 hours): 100%
- microsomal stability, remaining [6]: 0.03%
- microsomal stability, remaining [7]: 0.03%
- Ki (5ht3; Table 10): > 10 µM
- Ki (Alpha1B; Table 10): > 10 µM
- Ki (Alpha2C; Table 10): 9.6 µM
- Ki (D1; Table 10): 1.8 µM
- Ki (H3; Table 10): > 10 µM
- Ki (M2; Table 10): > 10 µM
- Ki (M3; Table 10): > 10 µM
- Ki (M4; Table 10): > 10 µM
- Ki (Sigma1; Table 10): > 10 µM
- Ki (DAT): > 10 µM
- CC50 [9]: > 50 µM
